Measurements taken from patent US20070281992A1, “COMBINATION OF GYRASE B INHIBITORS AND PROTEIN SYNTHESIS INHIBITORS AND USES THEREOF” (priority 2006, published 2007).
Like-named read-outs stand apart in the source and are kept apart here.

Key:
Format in all cases: cell-based
[1] = test system: Methicillin-Susceptible Staphylococcus aureus Isolates; experiment: MIC assay (NCCLS broth dilution), MSSA clinical isolates; conditions: for MIC: Staphylococcus aureus
Summary of the method: (§1)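 MIC is read as the value from NCCLS-standard broth dilution in Mueller Hinton II medium. Each agent spanned 11 two-fold dilutions, with novobiocin paired to tetracycline or minocycline at a 2.5:1 ratio reflecting serum levels.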

[2] = test system: Methicillin-Resistant Staphylococcus aureus Isolates; experiment: MIC assay (NCCLS broth dilution), MRSA clinical isolates; conditions: for MIC: Staphylococcus aureus
Summary of the method: as §1

[3] = test system: Linezolid-Resistant Staphylococcus aureus Isolates; experiment: MIC assay (NCCLS broth dilution), LRSA isolates; conditions: for MIC: Staphylococcus aureus
Summary of the method: as §1

[4] = test system: Enterococcus faecalis (ATCC 29212); experiment: MIC assay, quality control strain E. faecalis ATCC 29212; conditions: ATCC29212, read-out: Minimal Inhibitory Concentration, quality control, E. faecalis ATCC 29212, repeat runs 22FEB06-09MAR06, combinations at 2.5:1
Summary of the method: as §1

[5] = test system: Vancomycin-intermediate Staphylococcus aureus Isolates; experiment: MIC assay (NCCLS broth dilution), VISA isolates
Summary of the method: as §1

CN[C@H](CC(C)C)C(=O)N[C@H]1C(=O)N[C@@H](CC(N)=O)C(=O)N[C@H]2C(=O)N[C@H]3C(=O)N[C@H](C(=O)N[C@H](C(=O)O)c4cc(O)cc(O)c4-c4cc3ccc4O)[C@H](O)c3ccc(c(Cl)c3)Oc3cc2cc(c3O[C@@H]2O[C@H](CO)[C@@H](O)[C@H](O)[C@H]2O[C@H]2C[C@](C)(N)[C@H](O)[C@H](C)O2)Oc2ccc(cc2Cl)[C@H]1O [VA, vancomycin]
2 µg/mL: MIC ([2]; read-out: Minimal Inhibitory Concentration, MRSA isolate 1729, 03MAR06) | MIC ([2]; read-out: Minimal Inhibitory Concentration, MRSA isolate 2009, 24FEB06) | MIC [4]
1 µg/mL: MIC ([1]; read-out: Minimal Inhibitory Concentration, MSSA isolate 135, 03MAR06) | MIC ([1]; read-out: Minimal Inhibitory Concentration, MSSA isolate 755, 22FEB06) | MIC ([1]; read-out: Minimal Inhibitory Concentration, MSSA isolate 780, 03MAR06) | MIC ([1]; read-out: Minimal Inhibitory Concentration, MSSA isolate 782, 22FEB06) | MIC ([1]; read-out: Minimal Inhibitory Concentration, MSSA isolate 783, 22FEB06) | MIC ([1]; read-out: Minimal Inhibitory Concentration, MSSA isolate 789, 24FEB06) | MIC ([1]; read-out: Minimal Inhibitory Concentration, MSSA isolate 794, 24FEB06) | MIC ([1]; read-out: Minimal Inhibitory Concentration, MSSA isolate 994, 22FEB06) | MIC ([1]; read-out: Minimal Inhibitory Concentration, MSSA isolate 995, 03MAR06) | MIC ([1]; read-out: Minimal Inhibitory Concentration, MSSA isolate 997, 22FEB06) | MIC ([1]; read-out: Minimal Inhibitory Concentration, MSSA isolate 998, 03MAR06) | MIC ([1]; read-out: Minimal Inhibitory Concentration, MSSA isolate 1000, 24FEB06) | MIC ([1]; read-out: Minimal Inhibitory Concentration, MSSA isolate 1001, 24FEB06) | MIC ([1]; read-out: Minimal Inhibitory Concentration, MSSA isolate 1005, 24FEB06) | MIC ([1]; read-out: Minimal Inhibitory Concentration, MSSA isolate 1006, 24FEB06) | MIC ([1]; read-out: Minimal Inhibitory Concentration, MSSA isolate 1007, 24FEB06) | MIC ([1]; read-out: Minimal Inhibitory Concentration, MSSA isolate 1131, 24FEB06) | MIC ([1]; read-out: Minimal Inhibitory Concentration, MSSA isolate 1663, 03MAR06) | MIC ([1]; read-out: Minimal Inhibitory Concentration, MSSA isolate 1667, 03MAR06) | MIC ([1]; read-out: Minimal Inhibitory Concentration, MSSA isolate 1671, 03MAR06) | MIC ([1]; read-out: Minimal Inhibitory Concentration, MSSA isolate 1728, 03MAR06) | MIC ([1]; read-out: Minimal Inhibitory Concentration, MSSA isolate 1728, retest 09MAR06) | MIC ([2]; read-out: Minimal Inhibitory Concentration, MRSA isolate 757, 24FEB06) | MIC ([2]; read-out: Minimal Inhibitory Concentration, MRSA isolate 758, 03MAR06) | MIC ([2]; read-out: Minimal Inhibitory Concentration, MRSA isolate 758, 24FEB06) | MIC ([2]; read-out: Minimal Inhibitory Concentration, MRSA isolate 760, 03MAR06) | MIC ([2]; read-out: Minimal Inhibitory Concentration, MRSA isolate 760, 24FEB06) | MIC ([2]; read-out: Minimal Inhibitory Concentration, MRSA isolate 763, 22FEB06) | MIC ([2]; read-out: Minimal Inhibitory Concentration, MRSA isolate 771, 22FEB06) | MIC ([2]; read-out: Minimal Inhibitory Concentration, MRSA isolate 774, 24FEB06) | MIC ([2]; read-out: Minimal Inhibitory Concentration, MRSA isolate 775, 24FEB06) | MIC ([2]; read-out: Minimal Inhibitory Concentration, MRSA isolate 776, 24FEB06) | MIC ([2]; read-out: Minimal Inhibitory Concentration, MRSA isolate 778, 24FEB06) | MIC ([2]; read-out: Minimal Inhibitory Concentration, MRSA isolate 886, 24FEB06) | MIC ([2]; read-out: Minimal Inhibitory Concentration, MRSA isolate 888, 24FEB06) | MIC ([2]; read-out: Minimal Inhibitory Concentration, MRSA isolate 889, 24FEB06) | MIC ([2]; read-out: Minimal Inhibitory Concentration, MRSA isolate 1004, 24FEB06) | MIC ([2]; read-out: Minimal Inhibitory Concentration, MRSA isolate 1025, 22FEB06) | MIC ([2]; read-out: Minimal Inhibitory Concentration, MRSA isolate 1222, 03MAR06) | MIC ([2]; read-out: Minimal Inhibitory Concentration, MRSA isolate 1222, 24FEB06) | MIC ([2]; read-out: Minimal Inhibitory Concentration, MRSA isolate 1653, 03MAR06) | MIC ([2]; read-out: Minimal Inhibitory Concentration, MRSA isolate 1659, 03MAR06) | MIC ([2]; read-out: Minimal Inhibitory Concentration, MRSA isolate 1661, 03MAR06) | MIC ([2]; read-out: Minimal Inhibitory Concentration, MRSA isolate 1730, 24FEB06) | MIC ([2]; read-out: Minimal Inhibitory Concentration, MRSA isolate 2011, 24FEB06) | MIC ([3]; read-out: Minimal Inhibitory Concentration, LRSA isolate 1652, 24FEB06) | MIC ([3]; read-out: Minimal Inhibitory Concentration, LRSA isolate 1725, 24FEB06)
8 µg/mL: MIC Range ([5]; 2 VISA isolates, combinations at 2.5:1, given as NB/partner) | MIC ([5]; Staphylococcus aureus, read-out: Minimal Inhibitory Concentration) | Minimal Inhibitory Concentration ([5]; VISA isolate 2018, 03MAR06)
0.5 to 1 µg/mL: MIC Range ([3]; 3 LRSA isolates, combinations at 2.5:1)
0.5 µg/mL: MIC ([1]; read-out: Minimal Inhibitory Concentration, MSSA isolate 133, 03MAR06) | MIC ([1]; read-out: Minimal Inhibitory Concentration, MSSA isolate 134, 03MAR06) | MIC ([1]; read-out: Minimal Inhibitory Concentration, MSSA isolate 753, 22FEB06) | MIC ([1]; read-out: Minimal Inhibitory Concentration, MSSA isolate 754, 22FEB06) | MIC ([1]; read-out: Minimal Inhibitory Concentration, MSSA isolate 754, 24FEB06) | MIC ([1]; read-out: Minimal Inhibitory Concentration, MSSA isolate 756, 03MAR06) | MIC ([1]; read-out: Minimal Inhibitory Concentration, MSSA isolate 779, 22FEB06) | MIC ([1]; read-out: Minimal Inhibitory Concentration, MSSA isolate 781, 03MAR06) | MIC ([1]; read-out: Minimal Inhibitory Concentration, MSSA isolate 784, 22FEB06) | MIC ([1]; read-out: Minimal Inhibitory Concentration, MSSA isolate 785, 22FEB06) | MIC ([1]; read-out: Minimal Inhibitory Concentration, MSSA isolate 786, 22FEB06) | MIC ([1]; read-out: Minimal Inhibitory Concentration, MSSA isolate 787, 22FEB06) | MIC ([1]; read-out: Minimal Inhibitory Concentration, MSSA isolate 788, 22FEB06) | MIC ([1]; read-out: Minimal Inhibitory Concentration, MSSA isolate 790, 24FEB06) | MIC ([1]; read-out: Minimal Inhibitory Concentration, MSSA isolate 791, 24FEB06) | MIC ([1]; read-out: Minimal Inhibitory Concentration, MSSA isolate 792, 03MAR06) | MIC ([1]; read-out: Minimal Inhibitory Concentration, MSSA isolate 793, 24FEB06) | MIC ([1]; read-out: Minimal Inhibitory Concentration, MSSA isolate 996, 22FEB06) | MIC ([1]; read-out: Minimal Inhibitory Concentration, MSSA isolate 999, 22FEB06) | MIC ([1]; read-out: Minimal Inhibitory Concentration, MSSA isolate 1002, 24FEB06) | MIC ([1]; read-out: Minimal Inhibitory Concentration, MSSA isolate 1003, 03MAR06) | MIC ([1]; read-out: Minimal Inhibitory Concentration, MSSA isolate 1008, 24FEB06) | MIC ([1]; read-out: Minimal Inhibitory Concentration, MSSA isolate 1009, 24FEB06) | MIC ([1]; read-out: Minimal Inhibitory Concentration, MSSA isolate 1132, 03MAR06) | MIC ([1]; read-out: Minimal Inhibitory Concentration, MSSA isolate 1133, 24FEB06) | MIC ([1]; read-out: Minimal Inhibitory Concentration, MSSA isolate 1134, 24FEB06) | MIC ([1]; read-out: Minimal Inhibitory Concentration, MSSA isolate 1654, 03MAR06) | MIC ([1]; read-out: Minimal Inhibitory Concentration, MSSA isolate 1656, 03MAR06) | MIC ([1]; read-out: Minimal Inhibitory Concentration, MSSA isolate 1662, 03MAR06) | MIC ([1]; read-out: Minimal Inhibitory Concentration, MSSA isolate 1666, 03MAR06) | MIC ([1]; read-out: Minimal Inhibitory Concentration, MSSA isolate 1668, 03MAR06) | MIC ([2]; read-out: Minimal Inhibitory Concentration, MRSA isolate 765, 22FEB06) | MIC ([2]; read-out: Minimal Inhibitory Concentration, MRSA isolate 766, 22FEB06) | MIC ([2]; read-out: Minimal Inhibitory Concentration, MRSA isolate 767, 22FEB06) | MIC ([2]; read-out: Minimal Inhibitory Concentration, MRSA isolate 768, 22FEB06) | MIC ([2]; read-out: Minimal Inhibitory Concentration, MRSA isolate 769, 22FEB06) | MIC ([2]; read-out: Minimal Inhibitory Concentration, MRSA isolate 770, 22FEB06) | MIC ([2]; read-out: Minimal Inhibitory Concentration, MRSA isolate 772, 22FEB06) | MIC ([2]; read-out: Minimal Inhibitory Concentration, MRSA isolate 773, 24FEB06) | MIC ([2]; read-out: Minimal Inhibitory Concentration, MRSA isolate 777, 24FEB06) | MIC ([2]; read-out: Minimal Inhibitory Concentration, MRSA isolate 887, 24FEB06) | MIC ([2]; read-out: Minimal Inhibitory Concentration, MRSA isolate 1010, 22FEB06) | MIC ([2]; read-out: Minimal Inhibitory Concentration, MRSA isolate 1012, 22FEB06) | MIC ([2]; read-out: Minimal Inhibitory Concentration, MRSA isolate 1013, 22FEB06) | MIC ([2]; read-out: Minimal Inhibitory Concentration, MRSA isolate 1014, 22FEB06) | MIC ([2]; read-out: Minimal Inhibitory Concentration, MRSA isolate 1015, 22FEB06) | MIC ([2]; read-out: Minimal Inhibitory Concentration, MRSA isolate 1016, 22FEB06) | MIC ([2]; read-out: Minimal Inhibitory Concentration, MRSA isolate 1017, 22FEB06) | MIC ([2]; read-out: Minimal Inhibitory Concentration, MRSA isolate 1021, 22FEB06) | MIC ([2]; read-out: Minimal Inhibitory Concentration, MRSA isolate 1022, 22FEB06) | MIC ([2]; read-out: Minimal Inhibitory Concentration, MRSA isolate 1023, 22FEB06) | MIC ([2]; read-out: Minimal Inhibitory Concentration, MRSA isolate 1024, 22FEB06) | MIC ([2]; read-out: Minimal Inhibitory Concentration, MRSA isolate 1135, 22FEB06) | MIC ([2]; read-out: Minimal Inhibitory Concentration, MRSA isolate 1136, 22FEB06) | MIC ([2]; read-out: Minimal Inhibitory Concentration, MRSA isolate 1137, 22FEB06) | MIC ([2]; read-out: Minimal Inhibitory Concentration, MRSA isolate 1138, 22FEB06) | MIC ([2]; read-out: Minimal Inhibitory Concentration, MRSA isolate 1658, 03MAR06) | MIC ([2]; read-out: Minimal Inhibitory Concentration, MRSA isolate 2010, 24FEB06) | MIC ([3]; read-out: Minimal Inhibitory Concentration, LRSA isolate 1651, 24FEB06)
.5 to 1 µg/mL: MIC Range ([1]; 52 MSSA isolates, Mueller Hinton II Broth, combinations at 2.5:1, given as NB/partner)
.5 to 2 µg/mL: MIC Range ([2]; 52 MRSA isolates, combinations at 2.5:1, given as NB/partner)
